Results published in US5451584A, “N-alkynyl carboxamides as sertonergic agents” (American Home Products Corporation, priority 1994, dated 1995).

Legend:
[1] = target: T1, 5-HT1A serotonin receptor (Rattus norvegicus, UniProt P19327); test: displacement of [^3 H] 8-OHDPAT (dipropylaminotetralin) from the 5-HT1A serotonin receptor; conditions: procedure of Hall et al., read-out: 5-HT1A Binding (IC50)
T1 construct: from tissue; inferred from the cited Hall et al. 1985 procedure
T1 sequence (P19327 1-422): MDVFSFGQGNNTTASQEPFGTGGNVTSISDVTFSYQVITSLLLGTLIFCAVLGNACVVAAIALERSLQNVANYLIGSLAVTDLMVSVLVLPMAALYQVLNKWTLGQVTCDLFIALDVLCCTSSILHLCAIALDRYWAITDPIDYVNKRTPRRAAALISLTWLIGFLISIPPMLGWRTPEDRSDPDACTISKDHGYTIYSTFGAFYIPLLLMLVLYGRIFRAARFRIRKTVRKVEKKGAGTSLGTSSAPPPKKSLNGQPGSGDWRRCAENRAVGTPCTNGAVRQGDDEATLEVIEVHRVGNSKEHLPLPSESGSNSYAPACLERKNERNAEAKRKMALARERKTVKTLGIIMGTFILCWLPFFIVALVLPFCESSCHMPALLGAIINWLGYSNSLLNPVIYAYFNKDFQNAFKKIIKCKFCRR
Procedure: The compounds of this invention are prepared by conventional methods. For example, the appropriately substituted "acid" is transformed in the presence of a coupling agent like N,N-bis(2-oxo-3-oxazolidinyl)phosphoramidic chloride to yield the desired products ( 1 ). [drawing 3] High affinity for the serotonin 5-HT1A receptor was established by testing the claimed compound's ability to displace [^3 H] 8-OHDPAT (dipropylaminotetralin) from the 5-HT1A serotonin receptor following the procedure of Hall et al., J. Neurochem. 44, 1685 (1985). […] The anxiolytic activity of buspirone is believed to be, at least partially, due to its 5-HT1A receptor affinity (Vander Maclen et al., Eur. J. Pharmacol. 1986, 129 (1-2) […]).

[2] = target: T1, 5-HT1A serotonin receptor; conditions: buspirone, standard for anxiolytic activity; cited from earlier work

Compound	IC50 [1]	affinity for the 5-HT1A serotonin receptor subtype (in words) [2]
C#CCNC(=O)C(CCN1CCN(c2ccccc2OC)CC1)c1ccccc1 (stereo not drawn) [Example 1, 4-[4-(2-Methoxy-phenyl)-piperazin-1]-2-phenyl-N-prop-2-ynyl-butyramide]	44.9 nM	–
C#CCN(C)C(=O)C(CCN1CCN(c2ccccc2OC)CC1)c1ccccc1 (stereo not drawn) [Example 2, 4-[4-(2-Methoxy-phenyl)-piperazin-1-yl]-N-methyl-2-phenyl-N-prop-2-ynyl-butyramide]	19.4 nM	–
O=C1CC2(CCCC2)CC(=O)N1CCCCN1CCN(c2ncccn2)CC1 [buspirone]	–	potent affinity
